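Grown in 96-well plates, cells were treated for 48 hours with each compound at five concentrations. Insufficient inhibition: endpoint recorded as highest concentration tested. At the GI50, growth is halved. TGI: concentration producing complete growth inhibition.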
Key:
Experiment in all cases: inhibition of tumour cell growth, NCI panel, 48 h
HOP-62 NSCLC = test system: HOP-62 NSCLC
SF-295 CNS = test system: SF-295 CNS
UACC-62 melanoma = test system: UACC-62 melanoma
HOP-92 NSCLC = test system: HOP-92 NSCLC
MDA-N = test system: MDA-N
NCI-H460 lung = test system: NCI-H460 lung
SNB-19 CNS = test system: SNB-19 CNS
SR leukemia = test system: SR leukemia
RXF 393 renal = test system: RXF 393 renal
SNB-75 CNS = test system: SNB-75 CNS

| Structure (SMILES) | TGI (HOP-62 NSCLC) | TGI (SF-295 CNS) | TGI (UACC-62 melanoma) | TGI (HOP-92 NSCLC) | TGI (MDA-N) | TGI (NCI-H460 lung) | TGI (SNB-19 CNS) | TGI (SR leukemia) | TGI (RXF 393 renal) | TGI (SNB-75 CNS) | GI50 (RXF 393 renal) | GI50 (SF-295 CNS) |
| --- | --- | --- | --- | --- | --- | --- | --- | --- | --- | --- | --- | --- |
| CCOC(=O)C#Cc1ccccc1 | 46.3 µM | 30.2 µM | 32.5 µM | 36.9 µM | 45 µM | > 100 µM | > 100 µM | 4.76 µM |  |  |  |  |
| CCOC(=O)/C(O)=C1\C(=O)N(C)C(=O)C1c1cccc(OC)c1 (stereo not drawn) | > 100 µM | > 100 µM | > 100 µM | > 100 µM |  | > 100 µM | > 100 µM |  | > 100 µM | > 100 µM |  |  |
| Cn1c2ccccc2c(=O)c2c(O)cc3c(c21)C=CC1(CCCCC1)O3 | > 10 µM | > 10 µM | > 10 µM | > 10 µM | > 10 µM | > 10 µM | > 10 µM |  | > 10 µM | > 10 µM |  |  |
| Cc1ccc(C2=CC(=O)/C(=C\C(=O)c3ccc(Cl)cc3)O2)cc1 | > 100 µM |  | 23.8 µM | 33.3 µM | 16.2 µM |  | > 100 µM | 6.1 µM | 18.6 µM | 74.5 µM |  |  |
| O=C(N/N=C/c1ccc(Br)cc1)N/N=C/c1ccc(Br)cc1 | 17.5 µM | 19.6 µM | 41.2 µM |  | 37.5 µM |  | 16.6 µM | 17.7 µM | 40.5 µM |  |  |  |
| CCOP(=O)(/C=C\n1ccc(N)nc1=O)OCC | > 100 µM | > 100 µM | > 100 µM |  | > 100 µM | > 100 µM | > 100 µM |  | > 100 µM | > 100 µM |  |  |
| CNC(=O)CCCNC(=O)CCCC(=O)N(C)C | > 100 µM | > 100 µM | > 100 µM | > 100 µM | > 100 µM | > 100 µM | > 100 µM |  |  | > 100 µM |  |  |
| COc1cc2c(c(O)c1OC)C(=O)C(Cc1ccc(O)cc1)CO2 (stereo not drawn) | > 100 µM | 29.2 µM | > 100 µM | > 100 µM |  | > 100 µM | 74.1 µM | > 100 µM | 54 µM | 81.4 µM |  |  |
| CCCCn1c(-c2ccc([N+](=O)[O-])cc2)cs/c1=N/N=C1\C(=O)Nc2ccc(Br)cc21 | 37.9 µM | 61.2 µM | 76.1 µM | 73.3 µM | 45.2 µM | 38.3 µM | 69.3 µM |  | 22.5 µM | 59.8 µM |  |  |
| COc1ccc(COCC[C@H](C)OC2OC(CO[Si](C)(C)C(C)(C)C)C(OC(=O)CCCN=[N+]=[N-])C(OC(=O)CCCN=[N+]=[N-])C2OC(=O)CCCN=[N+]=[N-])cc1 (stereo partly drawn) | > 100 µM | > 100 µM | > 100 µM | > 100 µM | > 100 µM | > 100 µM |  |  | > 100 µM | 59.9 µM |  |  |
| CC12CCCC3(CC(=O)C(C)(C)C3C(=O)C1)C2 (stereo not drawn) | > 100 µM | > 100 µM | > 100 µM | > 100 µM | > 100 µM | > 100 µM | > 100 µM | > 100 µM |  | > 100 µM |  |  |
| c1c2c(cc(-n3nnc4c3CCCCCC4)c1-n1nnc3c1CCCCCC3)CCCCCC2 | 39 µM | 25.3 µM | 26.7 µM | 12.6 µM |  | 18.9 µM | 28.4 µM |  | 21.6 µM | 32.1 µM |  |  |
| C\C(=N/N=C1/C(=C\N(C)C)C(=O)NC(=O)N1C)c1ccc(Cl)cc1 | > 100 µM | > 100 µM | > 100 µM | > 100 µM | > 100 µM | > 100 µM | > 100 µM |  | > 100 µM | > 100 µM |  |  |
| CC1(C)[C@H]2CC[C@@]13C(=O)N1C(=O)O[C@@H]([C@H]1Cl)C(Cl)(COCc1ccccc1)C(=O)OCCO[C@H]3C2 (stereo partly drawn) | > 100 µM | > 100 µM | > 100 µM | > 100 µM | > 100 µM | > 100 µM | > 100 µM | > 100 µM |  | > 100 µM |  |  |
| CN(C)CCNC(=O)c1cccc2nc(-c3ccccc3)oc12 | > 100 µM | > 100 µM | > 100 µM | 59.4 µM |  | > 100 µM | > 79.8 µM |  | > 100 µM | > 100 µM |  |  |
| COc1ccc(CC2COc3cc(O)cc(O)c3C2=O)cc1O (stereo not drawn) | > 100 µM | 24.1 µM | > 100 µM | > 100 µM |  | > 100 µM | > 100 µM | > 100 µM | > 100 µM | 6.98 µM |  |  |
| COC1CC(OC2CCC3(C)C(=CCC4C3C(OC(C)=O)C(OC(=O)CC(C)C)C3(C)C(C(C)=O)CCC43O)C2)OC(C)C1OC1CC(OC)C(OC2CC(OC)C(OC3OC(C)C(OC4OC(CO)C(O)C(O)C4O)C(OC)C3O)C(C)O2)C(C)O1 (stereo not drawn) | > 75 µM | > 75 µM | > 75 µM | > 75 µM | > 75 µM | > 7.5 µM | > 75 µM |  |  | > 75 µM |  |  |
| O=c1cc(/C=C/c2ccccc2)[nH]c2cc3c(cc12)OCO3 | 14.5 µM | 13.7 µM | 10.1 µM | 14.8 µM | 6.23 µM | 10.6 µM | 13.4 µM |  | 22 µM | 40.2 µM | 4.27 µM | 3 µM |

Reference: PubChem BioAssay (NCI)
